Results on three molecules are retold here after article PMC11996864, “A small-molecule inhibitor of BCL10-MALT1 interaction abrogates progression of diffuse large B cell lymphoma” (The Journal of Clinical Investigation, 2025).

Several values for one entry are separate records, joined by “and”; a condition that tells them apart may be missing. Identical values can stand only once.

In series [1] the test system is ERK1/2 phosphorylation in Jurkat T cells. The experiment in a line: ERK phosphorylation after CD3/CD28 stimulation (MALT1-independent control).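 As to pERK 1/2 (normalized): Phosphorylated ERK1/2 relative to total ERK1/2 protein.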 Format: cell-based, human. Conditions: for pERK 1/2 (normalized): Jurkat, 1 μM; for ERK phosphorylation: result in words. As for the experimental part:
Western blot analysis of RelB and N4BP1 cleavage was used to test the effect of small molecules on MALT1 protease activity. To this end, 3 million Jurkat T cells were pretreated with compounds for 24 hours in serum-free media, and then 5 μM MG-132 was added for 1 hour before stimulation with CD3/CD28 (Stemcell Technologies, catalog 10971), and lysed in RIPA buffer (Millipore, catalog 20-188) with protease and phosphatase inhibitor cocktail (Pierce, catalog 78446). IKKα/β phosphorylation and IκBα phosphorylation were used as measures of MALT1 scaffolding activity, while ERK1/2 phosphorylation was used as a control. […] For experiments evaluating RelB cleavage and phosphorylation of IκBα in TMD8 cells, cells were treated with compounds for 24 hours in media containing 5% FBS. For RelB Western blot analysis, 5 μM MG-132 (Cell Signaling Technology, catalog 2194s) was added 4 hours before lysis in RIPA lysis buffer with protease/phosphatase inhibitors.

The test system of series [2] is OCI-Ly3 cells. The series is described as follows: Cell proliferation, trypan blue cell count. Format: cell-based, human. Conditions: OCI-Ly3, single 1 μM dose, 12 days, result in words. From the text:
Cell proliferation, viability, and apoptosis assays. Starting with ~20,000 DLBCL cells in 5% FBS
at day 0, cell number was counted using the trypan blue dye exclusion method with Vi-CELL cell

The test system of series [3] is MALT1 protein in DLBCL cells. Also on record: method as in PMID 30024860, PMID 23238017. Conditions: result in words; cited from earlier work.
Series [4] has as its system BJAB cells. The experiment in a line: Apoptosis, annexin staining flow cytometry. Format: cell-based, human.
The subject of series [5] is OCI-Ly1 cells. The series is described as follows: CellTrace Violet dilution/cell division assay. Format: cell-based, human. Conditions: OCI-Ly1, 1 μM. As for the experimental part:
(§1) Cell proliferation, viability, and apoptosis assays. […]
(§2) CellTrace Violet reagent (ThermoFisher, Cat#
(§3) C34571) was used as a cell division tracking dye for OCI-Ly1, OCI-Ly3, and TMD8 cells treated with 1 μM of compound M1i-124 or DMSO control, where the intensity of the staining decreases with each round of cell division. At days 0 and 6 after staining of DMSO- and compound-treated cells, CellTrace Violet fluorescence was measured on a BD LSR II instrument and Mean Fluorescent Intensity (MFI) was analyzed by FlowJo (version 10.8.0, BD). […]
(§4) For CellTrace Violet, CellTiter-glo, and Annexin V apoptosis assays, cell were cultured in media with 50% of the usual serum. […]

Series [6] deals with OCI-Ly3 cells. The experiment in a line: CellTrace Violet dilution/cell division assay. Format: cell-based, human. Conditions: OCI-Ly3, 1 μM. As for the experimental part:
as §1, §2, §3, §4

In series [7] the test system is TMD8 cells. The series is described as follows: CellTrace Violet dilution/cell division assay. Format: cell-based, human. Conditions: TMD8, 1 μM. As for the experimental part:
as §1, §2, §3, §4

Series [8] concerns the target T1, CYP1A2 (Homo sapiens, UniProt P05177).
T1 construct: from tissue; host or cells: pooled, mixed-gender human liver microsomes
The experiment in a line: Reversible CYP inhibition in human liver microsomes. Format: in vitro ADME. Conditions: read-out: Direct inhibition (IC50) CYP1A2. As for the experimental part:
(§5) Pharmacokinetic and cytochrome P450 inhibition studies. Studies were performed with the assistance of Touchstone Biosciences (Plymouth Meeting, Pennsylvania). […]
(§6) For reversible CYP […]
(§7) inhibition studies, different concentrations of M1i-124 were added to 0.2 mg/ml pooled, mixed-gender human liver microsomes (HLM). Each CYP450 isoform-specific probe substrate (CYP1A2, CYP2C9, CYP2C19, CYP2D6, and CYP3A4) was incubated individually with HLM and M1i-124 or corresponding positive control inhibitor (Phenacetin, Tolbutamaide, S-Mephenytoin, Dextromethorphan, Midazolam, and Testosterone). Samples were analyzed for metabolites of the probe substrates by LC-MS/MS at each of the test compound concentrations. A decrease in the formation of the metabolites compared to vehicle control was used to calculate the […]

The target of series [9] is T2, CYP2C19 (Homo sapiens, UniProt P33261).
T2 construct: from tissue; host or cells: pooled, mixed-gender human liver microsomes
T2 sequence (P33261 whole entry): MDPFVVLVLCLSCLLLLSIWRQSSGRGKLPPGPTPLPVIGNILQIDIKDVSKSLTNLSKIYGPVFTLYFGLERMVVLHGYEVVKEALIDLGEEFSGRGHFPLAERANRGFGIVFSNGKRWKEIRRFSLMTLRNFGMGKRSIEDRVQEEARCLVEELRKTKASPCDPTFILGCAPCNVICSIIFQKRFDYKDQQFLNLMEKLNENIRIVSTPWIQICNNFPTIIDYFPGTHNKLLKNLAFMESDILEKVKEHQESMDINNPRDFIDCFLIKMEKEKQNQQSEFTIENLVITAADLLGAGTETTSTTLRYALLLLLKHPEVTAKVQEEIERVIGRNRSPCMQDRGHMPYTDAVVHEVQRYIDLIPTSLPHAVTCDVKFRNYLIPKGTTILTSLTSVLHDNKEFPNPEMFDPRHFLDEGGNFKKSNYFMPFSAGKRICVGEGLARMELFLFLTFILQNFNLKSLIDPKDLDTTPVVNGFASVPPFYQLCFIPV
The series is described as above. Format: in vitro ADME. Conditions: read-out: Direct inhibition (IC50) CYP2C19. As to the method:
as §5, §6, §7

Series [10] concerns the target T3, CYP2C9 (Homo sapiens, UniProt P11712).
T3 construct: from tissue; host or cells: pooled, mixed-gender human liver microsomes
The description is as above. Conditions: read-out: Direct inhibition (IC50) CYP2C9. Format: in vitro ADME. As to the method: as §5, §6, §7

Series [11] deals with T4, CYP2D6 (Homo sapiens, UniProt P10635).
T4 construct: from tissue; host or cells: pooled, mixed-gender human liver microsomes
T4 sequence (P10635 whole entry): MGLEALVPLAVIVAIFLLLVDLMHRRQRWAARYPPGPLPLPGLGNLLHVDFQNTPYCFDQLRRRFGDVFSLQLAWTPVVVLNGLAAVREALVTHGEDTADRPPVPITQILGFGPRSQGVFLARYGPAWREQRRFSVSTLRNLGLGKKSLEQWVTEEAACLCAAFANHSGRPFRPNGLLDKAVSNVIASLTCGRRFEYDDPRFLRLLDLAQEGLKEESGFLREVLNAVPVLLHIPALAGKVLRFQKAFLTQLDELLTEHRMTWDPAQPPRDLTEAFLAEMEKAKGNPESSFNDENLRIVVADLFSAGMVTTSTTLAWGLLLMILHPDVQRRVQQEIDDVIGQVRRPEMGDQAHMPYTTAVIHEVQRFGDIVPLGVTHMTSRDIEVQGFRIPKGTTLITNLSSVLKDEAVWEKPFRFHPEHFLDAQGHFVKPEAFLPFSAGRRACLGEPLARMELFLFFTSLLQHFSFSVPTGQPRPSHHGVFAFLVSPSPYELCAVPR
Described as above. Format: in vitro ADME. Conditions: read-out: Direct inhibition (IC50) CYP2D6. As for the experimental part:
as §5, §6, §7

In series [12] the target is T5, CYP3A4M (Homo sapiens, UniProt P08684).
T5 construct: from tissue; host or cells: pooled, mixed-gender human liver microsomes
T5 sequence (P08684 whole entry): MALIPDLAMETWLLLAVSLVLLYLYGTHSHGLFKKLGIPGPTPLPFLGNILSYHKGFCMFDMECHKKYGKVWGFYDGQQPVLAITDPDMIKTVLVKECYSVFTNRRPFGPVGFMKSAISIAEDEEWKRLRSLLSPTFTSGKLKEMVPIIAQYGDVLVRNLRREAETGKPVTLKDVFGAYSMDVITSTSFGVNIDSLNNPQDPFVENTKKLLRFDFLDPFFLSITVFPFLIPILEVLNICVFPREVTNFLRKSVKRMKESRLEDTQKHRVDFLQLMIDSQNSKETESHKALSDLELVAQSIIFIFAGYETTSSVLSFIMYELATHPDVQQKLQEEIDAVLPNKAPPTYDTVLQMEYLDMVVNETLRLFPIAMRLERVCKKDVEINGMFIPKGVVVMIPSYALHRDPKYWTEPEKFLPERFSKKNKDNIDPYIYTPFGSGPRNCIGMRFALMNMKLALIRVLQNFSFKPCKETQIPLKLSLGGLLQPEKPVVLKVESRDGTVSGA
The series is described as above. Format: in vitro ADME. Conditions: read-out: Direct inhibition (IC50) CYP3A4M. As to the method: as §5, §6, §7

For series [13], the target named is T6, CYP3A4T (Homo sapiens, UniProt P08684).
T6 construct: from tissue; host or cells: pooled, mixed-gender human liver microsomes
T6 sequence (P08684 whole entry): as above
The series is described as above. Format: in vitro ADME. Conditions: read-out: Direct inhibition (IC50) CYP3A4T. As to the method: as §5, §6, §7

Series [14] has as its system C57BL/6 mice. The experiment in a line: Long-term (28 days) in vivo toxicity. Also on record: species or system mouse. As for the experimental part: Long-term in vivo toxicity experiments. WT C57/BL6 (The Jackson Laboratory) male and female mice were treated daily with 50 mg/kg M1i-124 or vehicle control for 28 days. At the time of sacrifice, blood was obtained for complete blood count, alanine transaminase, albumin, and total bilirubin (Abaxis). Livers from control and M1i-124 treated mice were collected for H&E analysis. […]

The subject of series [15] is TMD8 cells. The experiment in a line: CellTiter-Glo ATP viability. Format: cell-based, human.
Where [16] appears, read: 28 days, vs control, result in words.

T1 sequence (P05177 whole entry): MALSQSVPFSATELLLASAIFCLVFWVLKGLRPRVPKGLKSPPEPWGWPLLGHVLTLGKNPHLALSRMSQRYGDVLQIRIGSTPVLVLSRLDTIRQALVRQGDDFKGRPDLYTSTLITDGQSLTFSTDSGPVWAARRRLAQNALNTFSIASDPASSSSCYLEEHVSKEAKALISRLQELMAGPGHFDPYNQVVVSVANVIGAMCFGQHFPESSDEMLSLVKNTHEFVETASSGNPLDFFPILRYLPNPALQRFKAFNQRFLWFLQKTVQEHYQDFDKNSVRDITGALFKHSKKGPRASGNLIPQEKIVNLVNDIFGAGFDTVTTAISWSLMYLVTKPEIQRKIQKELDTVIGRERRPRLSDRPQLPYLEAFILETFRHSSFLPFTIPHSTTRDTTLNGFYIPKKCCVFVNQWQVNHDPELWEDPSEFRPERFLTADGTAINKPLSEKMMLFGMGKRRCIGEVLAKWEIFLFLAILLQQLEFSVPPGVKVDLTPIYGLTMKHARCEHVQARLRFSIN
T3 sequence (P11712 whole entry): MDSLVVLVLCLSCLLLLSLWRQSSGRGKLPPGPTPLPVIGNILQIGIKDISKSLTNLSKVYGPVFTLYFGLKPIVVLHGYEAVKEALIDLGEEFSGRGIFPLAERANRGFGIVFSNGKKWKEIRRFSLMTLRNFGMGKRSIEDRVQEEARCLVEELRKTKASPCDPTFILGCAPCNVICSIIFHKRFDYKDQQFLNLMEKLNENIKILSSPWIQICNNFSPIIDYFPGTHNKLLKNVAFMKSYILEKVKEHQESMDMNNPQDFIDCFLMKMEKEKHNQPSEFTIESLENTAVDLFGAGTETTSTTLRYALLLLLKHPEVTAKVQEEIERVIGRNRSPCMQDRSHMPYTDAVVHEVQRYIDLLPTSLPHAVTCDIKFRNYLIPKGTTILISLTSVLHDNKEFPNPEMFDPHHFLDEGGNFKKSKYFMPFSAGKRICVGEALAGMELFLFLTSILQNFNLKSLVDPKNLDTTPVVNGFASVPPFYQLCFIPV

Turning to `COc1ccc(CNS(=O)(=O)c2ccc(Cc3ccc(S(=O)(=O)NCc4ccc(OC)cc4)cc3)cc2)cc1` [M1i-124d1], the “pERK 1/2 (normalized)” value in [1] (CD3/CD28 5 min) was 1.155 and 0.776 and 1.27 and 0.7498 and 0.998; in series [1] (CD3/CD28 10 min), 1.2674 and 0.9152 and 1.197 and 0.7135 and 0.9691; in [1] (CD3/CD28 15 min), 1.05 and 0.8514 and 1.066 and 0.6774 and 0.9099; in series [1] (CD3/CD28 20 min) it was 0.8015 and 0.6878 and 0.9541 and 0.7317 and 0.9634. Moreover, in series [1], the ERK phosphorylation result is recorded as “unaffected”. Besides, the “expansion of culture (proliferation)” value in [2] was “significant reduction in the expansion”.
Take `CN1CCCC(CN2c3ccccc3Sc3ccccc32)C1` (stereo not drawn) [Mepazine, mepazine, reference compound]: the MALT1 protein level entry in series [3] is recorded as “unaffected”.
Take `O=S(=O)(NCc1ccc2c(c1)OCO2)c1ccc(Cc2ccc(S(=O)(=O)NCc3ccc4c(c3)OCO4)cc2)cc1` [M1i-124]: the “Annexin (% positivity)” value in [4] (BJAB, individual replicates) is 34.8% and 31.55% and 33.15%. The “apoptosis of BJAB cells” value in [4] (result in words) is “either no or minimal apoptotic response”. Besides, the ERK phosphorylation result in series [1] is “unaffected”. In addition, in series [2], the “expansion of culture (proliferation)” value was “significant reduction in the expansion”. Further, the activity at 1 µM in [5] (Homo sapiens, OCI-Ly1, 144 h, day 6, read-out: CellTrace Violet dilution (Percent of Control)) was determined as 73.1%; in series [7] (Homo sapiens, TMD8, 144 h, day 6, read-out: CellTrace Violet dilution (Percent of Control)), 42.2%. Moreover, the cell division result in series [5] (6 days, result in words) is reported as “minimal effect”; in [6] (6 days, result in words), “substantially reduced”; in series [7] (6 days, result in words), “substantially reduced”. The “CellTrace Violet dilution (Percent of Control)” value in series [5] (day 6, 1 µM) is 82.43% of Control and 74.14% of Control and 90.83% of Control; in [6] (day 6, 1 µM), 39.99% of Control and 46.66% of Control and 31.33% of Control and 60.69% of Control; in series [7] (day 6, 1 µM), 48.11% of Control and 53.597% of Control and 42.644% of Control. The IC50 in [8] is above 100 µM; in series [9], 28 µM; in series [10], 21 µM; in [11], 13 µM; in series [12] it was 28 µM; in series [13] it was 40 µM. Besides, the Albumin result in series [14] (28 days, result in words) is “decrease in albumin”; in [14] (individual mice), 3.5 g/dL and 2.5 g/dL and 2.1 g/dL and 1.9 g/dL and 3.2 g/dL. Moreover, in [14] (28 days, result in words), the “alanine transaminase or total bilirubin” value was “did not result in a change”. In addition, the “liver histology (H&E)” value in series [14] (28 days, result in words) is “no appreciable difference”. Further, the “blood counts (white blood cell count, hemoglobin, platelet count)” value in series [14] (setting [16]) is given as “did not result in a statistically significant change”. In addition, the change in weight result in series [14] (setting [16]) is given as “did not result in a statistically significant change”. Also, in series [14] (C57BL/6 mice, 50 mg/kg daily, 28 days, 50 mg/kg), the “% change in body weight” value was 9.778% and 0% and 8.3% and 7.514% and 2.89% and 0.5714% and 7.273% and 4.7619%. Also, in series [14] (individual mice), the ALT is 35 U/L and 100 U/L and 26 U/L and 120 U/L and 180 U/L and 125 U/L. In addition, the Hemoglobin in [14] (individual mice) is 13.2 g/dL and 10.9 g/dL and 13.7 g/dL and 12.6 g/dL and 14 g/dL and 12 g/dL and 10.3 g/dL and 11.3 g/dL and 12.9 g/dL. Also, in series [14] (individual mice), the Platelets is 439 10^9/L and 412 10^9/L and 524 10^9/L and 394 10^9/L and 557 10^9/L and 522 10^9/L and 479 10^9/L and 381 10^9/L and 186 10^9/L. In series [14] (individual mice), the “Total Bilirubin” value was 0.3 mg/dL and 0.4 mg/dL and 0.2 mg/dL. The WBC in series [14] (individual mice) was 8.15 10^9/L and 3.97 10^9/L and 4.01 10^9/L and 2.58 10^9/L and 5.28 10^9/L and 4.82 10^9/L and 3.12 10^9/L and 3.23 10^9/L and 1.49 10^9/L. For the same molecule, the in vivo tolerability entry in [14] (result in words) is recorded as “well tolerated with minimal toxicity”. For the same molecule, the “Percent cell viability (ATP luminescence)” value in series [15] (TMD8, M1i-124 (µM) 0.02) is 98.5399% and 121.237% and 91.8987%; in series [15] (TMD8, M1i-124 (µM) 0.05), 110.558% and 93.9485% and 106.792%; in series [15] (TMD8, M1i-124 (µM) 0.1), 120.312% and 100.889%; in series [15] (TMD8, M1i-124 (µM) 0.2), 81.1675% and 99.7783% and 71.7208%.
